Assay results reported in US7247612B2, “Methods of treating an inflammatory disease with a JJT-1 polypeptide” (Japan Tobacco Inc., priority 1997, dated 2007).

System: rat lymphoblast cells activated with concanavalin A
Assay: Aggregation of concanavalin A-activated rat lymphoblast cells
Type: cell-based
Conditions: ConA-activated rat lymphoblasts
Description: The hybridomas prepared in Example 1 were screened by analyzing the effect of the antibodies produced in the culture supernatant of the hybridomas on FTL435 cells, which were used as the immunogen. FTL435 cells (5×10^6 cells/ml, 0.1 ml) were seeded into each well of a 96-well microtiter plate and cultivated at 37° C. for an hour in the presence of culture supernatant of each hybridoma (10 μg/ml each).
In order to determine whether the aggregation of FTL435 cells induced by “JTT-1 antibody” stimulation was caused by the cell adhesion between intercellular adhesion molecule-1 (ICAM-1) and lymphocyte function-associated antigen-1 (LFA-1), which is a representative known pathway of cell adhesion, FTL435 cells were cultivated at 37° C. for an hour in the presence of anti-rat ICAM-1 antibody 1A29 (10 μg/ml; IgG1) or anti-rat LFA-1 antibody (10 μg/ml; IgG2a) together with “JTT-1 antibody.”
In order to further analyze the cell agglutination ability of “JTT-1 antibody,” the ability to agglutinate rat lymphoblast cells activated with concanavalin A stimulation was analyzed in the same manner as mentioned above.

SMILES: CCCCCCCCCCCCCC(=O)O[C@@H]1[C@@H](C)[C@@]2(O)[C@@H](C=C(CO)C[C@]3(O)C(=O)C(C)=C[C@@H]23)[C@@H]2C(C)(C)[C@]12OC(C)=O [phorbol myristate acetate]
- Aggregation of activated lymphoblast cells: no aggregation through cell adhesion unless they receive the stimulation
